From patent US20080050387A1, “Non-Androgen Dependent Roles for Androgen Receptor and Non-Androgen Related Inhibitors of Androgen Receptor” (priority 2003, published 2008)

Key:
AR [1] = assay: Mammalian two-hybrid assay hRad9 / AR in PC-3 cells; type: cell-based, human; conditions: 10 nM DHT, positive control
Method: (§1) PC-3, CWR22R, and LNCaP cell lines were maintained in […] supplemented with 10% fetal calf serum (FCS). Transient transfection for luciferase assays was carried out in 24-well plates (5×10^4 cells per well) using SuperFect as described previously (Lin, H. K., et al., Embo J 21:4037-48 (2002)). DNA mixtures in transfection assay were indicated in each figure. The total amount of transfected DNA was kept constant (1 μg) by adding the corresponding amounts of empty expression plasmids. After transfection, cells were cultured in RPMI-1600 supplemented with 5% charcoal-stripped FCS in the presence or absence of 10 nM dihydrotestosterone (DHT) for 18 h. Luciferase assays were performed as previously described (Yang, L., et al., J Biol Chem 278:16820-7 (2003)). In Western blotting assays, CWR22R or LNCaP cells were transfected by electroporation using 5×10^6 cells/0.4 ml of RPMI medium containing 2% FCS plus 9 μg of the indicated plasmids. 1 μg of EGFP expression vector was used for transfection efficiency. Electroporation was performed at 250 V and 950 μF using Gene Pulser II (Bio-Rad)
Target sequence in this assay (P10275 with tags, fused parts or gaps DEL79-80/DUP473-473): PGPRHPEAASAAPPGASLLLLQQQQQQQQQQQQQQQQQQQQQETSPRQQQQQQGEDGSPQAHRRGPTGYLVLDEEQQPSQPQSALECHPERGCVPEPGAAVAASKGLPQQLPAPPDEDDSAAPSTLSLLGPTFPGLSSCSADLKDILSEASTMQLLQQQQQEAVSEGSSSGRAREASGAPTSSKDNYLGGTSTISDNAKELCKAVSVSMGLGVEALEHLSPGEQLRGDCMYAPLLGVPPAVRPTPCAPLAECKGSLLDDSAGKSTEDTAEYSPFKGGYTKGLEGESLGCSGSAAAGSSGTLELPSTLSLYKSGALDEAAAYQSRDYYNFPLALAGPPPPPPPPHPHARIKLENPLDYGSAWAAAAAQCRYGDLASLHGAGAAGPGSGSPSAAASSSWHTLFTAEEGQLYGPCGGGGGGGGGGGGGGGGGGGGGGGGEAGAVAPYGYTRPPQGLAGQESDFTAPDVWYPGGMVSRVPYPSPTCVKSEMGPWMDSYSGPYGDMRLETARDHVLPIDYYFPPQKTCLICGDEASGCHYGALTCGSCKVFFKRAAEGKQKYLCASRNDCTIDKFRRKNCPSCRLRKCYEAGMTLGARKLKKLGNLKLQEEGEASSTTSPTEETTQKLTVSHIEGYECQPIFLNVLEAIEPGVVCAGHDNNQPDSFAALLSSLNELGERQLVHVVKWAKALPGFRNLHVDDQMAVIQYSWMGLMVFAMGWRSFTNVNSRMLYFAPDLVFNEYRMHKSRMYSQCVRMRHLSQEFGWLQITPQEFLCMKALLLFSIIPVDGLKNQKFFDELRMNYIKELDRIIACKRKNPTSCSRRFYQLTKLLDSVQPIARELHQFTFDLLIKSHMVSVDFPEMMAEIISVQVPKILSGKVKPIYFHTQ

AR N/C interaction = assay: Reconstituted AR transcription assay (AR N/C interaction) in PC-3 cells; type: cell-based, human; conditions: 10 nM DHT, MMTV-LUC
Method: as §1

[2] = system: estrogen receptor α (ERα); assay: ERα transcriptional activity ERE-LUC in PC-3 cells with hRad9; type: cell-based; conditions: cognate ligand
Method: as §1

[3] = system: estrogen receptor α (ERα); assay: Mammalian two-hybrid assay hRad9 / ERα; type: cell-based; conditions: PC-3 cells, presence of estrogen
Method: as §1, with “After transfection, cells were cultured in RPMI-1600 supplemented with 5% charcoal-stripped FCS in the presence or absence of 10 nM dihydrotestosterone (DHT) for 18 h.” left out

AR (DBD-LBD, LBD, DBD) = assay: Yeast two-hybrid / liquid β-gal assay hRad9 fragment / AR domains; type: cell-based, human; conditions: AH109 yeast cells
Description: The DBD and LBD of AR cDNA was amplified and was cloned into the NdeI and BamHI site of pGBKT7 (Clontech). Yeast strain AH109 was transformed with the vector encoding GAL4 DBD-AR-DBD-LBD fusion and was mated with yeast strain Y187 pretransformed with the human ovary […] cDNA library (Clontech). The yeast clones were selected following the manufacturer's instruction. The positive clones were confirmed by clone lift assay and purified plasmids were retransformed into yeast strain AH109 with bait plasmids. The interaction specificity was further confirmed by liquid […] assay.

AR [4] = assay: In vitro GST pull-down assay GST-hRad9 / AR domains; type: binding, human
Method: The N-terminus (N), DBD, LBD, and DBD-LBD of AR were in vitro translated in the presence of [^35S] methionine using T7 polymerase and the coupled transcription/translation kit (Promega). pGEX-KG-hRad9 plasmids expressing GST-hRad9 fusion protein were transformed into BL21 (DE3) bacteria strain. 0.4 mM isopropyl-o-D-thiogalactopyranoside was added into LB medium containing transformed bacteria when the OD600 reached 0.5. Bacteria were further cultured in 30° C. for 3 h and lysed by 4 cycles of freezing-thawing in NETN buffer (20 mM Tris/pH 8.0, 0.5% NP-40, 100 mM NaCl, 6 mM MgCl2, 1 mM EDTA, 1 mM DTT, 8% glycerol, and 1 mM PMSF). The GST-hRad9 fusion proteins were purified with glutathione-beads in 4° C. Labeled proteins of AR mutants were incubated with equal amounts of GST-hRad9 in binding buffer (50 mM Hepes, 100 mM NaCl, 20 mM Tris-Cl/pH 8.0, 0.1% Tween 20, 10% glycerol, 1 mM dithiothreitol, 0.5 mM phenylmethysulfonyl fluoride, 1 mM NaF, and 0.4 mM sodium vanadate) with or without 10 nM DHT at 4° C. for 2 h. The beads were then washed with NETN buffer 4 times, resuspended in SDS-polyacrylamide loading buffer, and resolved on 10% SDS-polyacrylamide gel electrophoresis followed by autoradiograhy.

AR [5] = assay: AR transactivation MMTV-LUC assay in PC-3 cells with hRad9; type: cell-based, human; conditions: MMTV-LUC, 10 nM DHT
Method: as §1
Target sequence in this assay (P10275 with tags, fused parts or gaps DEL79-80/DUP473-473): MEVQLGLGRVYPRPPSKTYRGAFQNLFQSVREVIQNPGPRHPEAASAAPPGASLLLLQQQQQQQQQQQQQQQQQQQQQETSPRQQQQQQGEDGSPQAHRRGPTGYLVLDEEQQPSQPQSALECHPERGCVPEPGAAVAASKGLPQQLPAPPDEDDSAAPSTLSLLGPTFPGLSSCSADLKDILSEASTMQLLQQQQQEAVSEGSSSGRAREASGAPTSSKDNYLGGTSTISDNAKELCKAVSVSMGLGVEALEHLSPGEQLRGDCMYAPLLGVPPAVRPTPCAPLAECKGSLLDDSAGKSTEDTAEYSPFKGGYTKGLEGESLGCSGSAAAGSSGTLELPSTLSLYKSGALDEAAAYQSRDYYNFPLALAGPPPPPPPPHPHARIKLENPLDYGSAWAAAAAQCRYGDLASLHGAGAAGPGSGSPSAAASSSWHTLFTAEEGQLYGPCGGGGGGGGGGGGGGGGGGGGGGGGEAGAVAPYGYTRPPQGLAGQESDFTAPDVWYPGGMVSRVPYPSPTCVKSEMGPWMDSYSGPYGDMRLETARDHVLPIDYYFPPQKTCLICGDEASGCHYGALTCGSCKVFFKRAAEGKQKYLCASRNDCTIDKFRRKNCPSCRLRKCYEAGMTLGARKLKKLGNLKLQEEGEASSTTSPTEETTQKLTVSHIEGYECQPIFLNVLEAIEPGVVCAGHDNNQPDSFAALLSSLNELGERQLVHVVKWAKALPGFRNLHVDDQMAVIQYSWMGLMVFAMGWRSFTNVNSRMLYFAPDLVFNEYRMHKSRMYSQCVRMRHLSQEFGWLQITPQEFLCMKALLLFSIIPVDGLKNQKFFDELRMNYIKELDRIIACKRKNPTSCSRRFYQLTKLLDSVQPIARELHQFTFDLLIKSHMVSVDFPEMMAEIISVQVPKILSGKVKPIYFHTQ

vitamin D receptor (VDR) [6] = assay: VDR transcriptional activity rCyp24-LUC in PC-3 cells with hRad9; type: cell-based; conditions: cognate ligand
Method: as §1

vitamin D receptor (VDR) [7] = assay: Mammalian two-hybrid assay hRad9 / VDR; type: cell-based; conditions: PC-3 cells
Method: as §1

[8] = system: PSA expression in LNCaP cells; assay: DHT-mediated induction of PSA protein in LNCaP cells with hRad9; type: cell-based, human; conditions: 10 nM DHT
Method: as §1

Chain of estrogen receptor α (ERα) (P03372 whole entry, species assumed): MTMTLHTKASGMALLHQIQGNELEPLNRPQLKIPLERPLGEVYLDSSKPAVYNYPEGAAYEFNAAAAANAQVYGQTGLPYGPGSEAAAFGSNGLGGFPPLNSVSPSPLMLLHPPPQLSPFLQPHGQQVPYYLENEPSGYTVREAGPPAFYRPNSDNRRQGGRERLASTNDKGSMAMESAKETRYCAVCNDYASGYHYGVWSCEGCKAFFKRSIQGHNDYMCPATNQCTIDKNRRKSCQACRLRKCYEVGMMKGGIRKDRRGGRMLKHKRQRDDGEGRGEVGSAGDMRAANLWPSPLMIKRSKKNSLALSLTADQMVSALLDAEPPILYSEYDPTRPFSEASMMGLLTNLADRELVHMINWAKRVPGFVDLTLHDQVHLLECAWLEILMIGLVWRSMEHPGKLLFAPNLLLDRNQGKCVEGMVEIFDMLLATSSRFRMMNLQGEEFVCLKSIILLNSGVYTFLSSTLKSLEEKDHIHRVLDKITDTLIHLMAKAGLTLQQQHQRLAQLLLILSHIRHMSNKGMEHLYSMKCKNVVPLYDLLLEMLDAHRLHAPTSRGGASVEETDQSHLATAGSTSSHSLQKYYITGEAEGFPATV
Chain of vitamin D receptor (VDR) (P11473 whole entry, species assumed, the tested form may be a part): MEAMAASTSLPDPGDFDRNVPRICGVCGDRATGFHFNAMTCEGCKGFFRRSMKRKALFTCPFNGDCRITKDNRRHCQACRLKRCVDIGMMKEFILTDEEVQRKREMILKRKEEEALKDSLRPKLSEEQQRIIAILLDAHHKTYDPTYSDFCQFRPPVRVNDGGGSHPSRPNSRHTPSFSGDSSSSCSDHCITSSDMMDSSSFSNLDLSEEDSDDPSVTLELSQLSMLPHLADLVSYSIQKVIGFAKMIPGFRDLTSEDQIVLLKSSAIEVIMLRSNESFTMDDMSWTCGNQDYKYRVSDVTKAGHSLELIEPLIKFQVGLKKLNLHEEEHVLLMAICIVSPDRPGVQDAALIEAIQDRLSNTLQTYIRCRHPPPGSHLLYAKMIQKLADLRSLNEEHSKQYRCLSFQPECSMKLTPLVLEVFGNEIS
Chain of AR (DBD-LBD, LBD, DBD) (P10275 558-624): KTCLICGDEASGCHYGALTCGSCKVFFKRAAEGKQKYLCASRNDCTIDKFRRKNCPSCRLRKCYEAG
Chain of AR N/C interaction (P10275 557-920): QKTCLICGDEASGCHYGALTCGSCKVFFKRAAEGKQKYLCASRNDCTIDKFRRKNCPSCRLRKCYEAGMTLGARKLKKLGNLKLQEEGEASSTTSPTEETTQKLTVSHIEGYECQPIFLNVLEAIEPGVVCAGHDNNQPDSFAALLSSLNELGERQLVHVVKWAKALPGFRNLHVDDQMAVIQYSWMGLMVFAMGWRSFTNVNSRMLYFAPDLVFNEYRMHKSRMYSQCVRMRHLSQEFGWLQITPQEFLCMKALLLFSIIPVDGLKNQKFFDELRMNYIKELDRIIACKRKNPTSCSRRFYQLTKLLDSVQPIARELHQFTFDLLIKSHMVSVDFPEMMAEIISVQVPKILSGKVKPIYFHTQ

Substance | DHT-dependent interaction with VP16-AR (AR [1]) [fold] | interaction between AR N- and C-terminus (AR N/C interaction) | ER transcriptional activity [2] | interaction with ERα [3] | interaction with GAL4-AR-DBD (AR (DBD-LBD, LBD, DBD)) | interaction with AR LBD and AR-DBD-LBD (AR [4]) | interaction with N-terminus of AR (aa. 1-556) and DBD alone (AR [4]) | transcriptional activity of AR (AR [5]) | VDR transcriptional activity (vitamin D receptor (VDR) [6]) | interaction with VDR (vitamin D receptor (VDR) [7]) | DHT-mediated induction of PSA [8]
HPTHSSRLWELLMEATPTM [GAL4-D30 peptide, reference compound] | 350 | blockage | – | – | – | – | – | – | – | – | –
hRad9: human checkpoint protein of the Rad family (SEQ ID NO:7), corepressor of AR | – | – | little inhibitory effect | no interaction | did not interact | interacted specifically | Neither the N-terminus of AR (aa. 1-556) nor the DBD alone adhered | decreased | little inhibitory effect | no interaction | potently inhibited
